Source: patent US20170305922A1, “CARM1 INHIBITORS AND USES THEREOF” (Epizyme, Inc., priority 2014, published 2017)

Columns and labels:
Human CARM1 (PRMT4) = target: T1, Human CARM1 (PRMT4) (Homo sapiens, UniProt Q86X55); assay: CARM1 enzyme assay on peptide substrates (3H-SAM Flashplate); settings: Biochemical assay; CARM1 0.25 nM, 3H-SAM 30 nM, peptide 250 nM; read-out: Biochem IC50
T1 construct: Flag-CARM1-His was eluted with 200 ug/ml FLAG peptide in buffer A; made in house; host or cells: HEK 293F cells infected with recombinant baculovirus (pFastBacMam)
T1 sequence (Q86X55 1-585 isoform Q86X55-1): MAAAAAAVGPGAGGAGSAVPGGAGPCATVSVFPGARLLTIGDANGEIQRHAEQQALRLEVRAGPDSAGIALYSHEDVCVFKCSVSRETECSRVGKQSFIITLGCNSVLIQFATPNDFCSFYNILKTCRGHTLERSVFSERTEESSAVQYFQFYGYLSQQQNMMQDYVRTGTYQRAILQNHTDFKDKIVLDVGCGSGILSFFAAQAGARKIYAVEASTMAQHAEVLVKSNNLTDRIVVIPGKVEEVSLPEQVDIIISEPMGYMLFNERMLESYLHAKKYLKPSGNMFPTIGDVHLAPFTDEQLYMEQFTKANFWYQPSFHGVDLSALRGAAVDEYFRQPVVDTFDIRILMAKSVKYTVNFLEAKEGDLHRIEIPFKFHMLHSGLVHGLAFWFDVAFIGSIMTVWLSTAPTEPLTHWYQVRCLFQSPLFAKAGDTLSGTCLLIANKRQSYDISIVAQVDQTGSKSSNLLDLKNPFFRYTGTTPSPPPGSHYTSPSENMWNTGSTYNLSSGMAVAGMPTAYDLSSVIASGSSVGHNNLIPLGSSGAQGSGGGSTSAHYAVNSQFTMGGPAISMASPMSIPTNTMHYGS
Text: S-adenosylmethionine (SAM), S-adenosylhomocysteine (SAH), bicine, Tween20, dimethylsulfoxide (DMSO), bovine skin gelatin (BSG), sodium butyrate and Tris(2-carboxyethyl)phosphine hydrochloride solution (TCEP) were purchased from Sigma-Aldrich at the highest level of purity possible. ^3H-SAM was purchase from American Radiolabeled Chemicals with a specific activity of 80 Ci/mmol. 384-well streptavidin Flashplates were purchased from PerkinElmer.
Peptide representative of human histone H3 residues 16-30 was synthesized with an N-terminal linker-affinity tag motif and a C-terminal amide cap by 21st Century Biochemicals. […] The sequence was Biot-Ahx-[…]-amide and contained a monomethylated arginine at position 26 (SEQ ID NO.:1).
The gene sequence encoding isoform1 containing a deletion of amino acids 539-561 was amplified subsequently and subcloned into pFastBacMam (Viva Biotech).
Recombinant baculovirus were generated according to Bac-to-Bac kit instructions (Life Technologies). Protein over-expression was accomplished by infecting exponentially growing HEK 293F cell culture at 1.3×10^6 cell/ml with virus (MOI=10) in the presence of 8 mM sodium butyrate. Infections were carried out at 37° C. for 48 hours, harvested by centrifugation, and stored at −80° C. for purification.
Column was washed with 500 mM NaCl in buffer A and Flag-CARM1-His was eluted with 200 ug/ml FLAG peptide in buffer A. Pooled fractions were dialyzed in 20 mM Tris, 150 mM NaCl, 5% glycerol and 1 mM DTT, pH 7.8.
The assays were all performed in a buffer consisting of 20 mM Bicine (pH=7.6), 1 mM TCEP, 0.005% BSG, and 0.002% Tween 20, prepared on the day of use. Compounds in 100% DMSO (1 ul) were spotted into a polypropylene 384-well V-bottom plates (Greiner) using a Platemate Plus outfitted with a 384-channel head (Thermo Scientific). DMSO (1 ul) was added to Columns 11, 12, 23, 24, rows A-H for the maximum signal control and 1 ul of SAH, a known product and inhibitor of CARM1, was added to columns 11, 12, 23, 24, rows I-P for the minimum signal control. A cocktail (40 ul) containing the CARM1 enzyme was added by Multidrop Combi (Thermo-Fisher). The compounds were allowed to incubate with CARM1 for 30 min at room temperature, then a cocktail (10 ul) containing ^3H-SAM and peptide was added to initiate the reaction (final volume=51 ul). The final concentrations of the components were as follows: CARM1 was 0.25 nM, ^3H-SAM was 30 nM, peptide was 250 nM, SAH in the minimum signal control wells was 1 mM, and the DMSO concentration was 2%. The assays were stopped by the addition of non-radiolabeled SAM (10 ul) to a final concentration of 300 uM, which dilutes the ^3H-SAM to a level where its incorporation into the peptide substrate is no longer detectable. 50 ul of the reaction in the 384-well polypropylene plate was then transferred to a 384-well Flashplate and the biotinylated peptides were allowed to bind to the streptavidin surface for at least 1 hour before being washed once with 0.1% Tween20 in a Biotek ELx405 plate washer. The plates were then read in a PerkinElmer TopCount plate reader to measure the quantity of ^3H-labeled peptide bound to the Flashplate surface, measured as disintegrations per minute (dpm) or alternatively, referred to as counts per minute (cpm).
where dpm=disintegrations per minute, cmpd=signal in assay well, and min and max are the respective minimum and maximum signal controls.
where top and bottom are the normally allowed to float, but may be fixed at 100 or 0 respectively in a 3-parameter fit. The Hill Coefficient normally allowed to float but may also be fixed at 1 in a 3-parameter fit. Y is the % inhibition and X is the compound concentration.

[1] = test system: asymmetric di-methyl PABP1 in RKO cells; assay: RKO methylation assay: In Cell Western (ICW) for asymmetric di-methyl PABP1 (PABP1me2a); settings: Cellular-based (PABP1me2a) ICW (In Cell Western) assay
Text: RKO adherent cells were purchased from ATCC (American Type Culture Collection), Manassas, Va., USA. DMEM/Glutamax medium, penicillin-streptomycin, heat inactivated fetal bovine serum, 0.05% trypsin and D-PBS were purchased from Life Technologies, Grand Island, N.Y., USA. Odyssey blocking buffer, 800CW goat anti-rabbit IgG (H+L) antibody, and Licor Odyssey infrared scanner were purchased from Licor Biosciences, Lincoln, Nebr., USA. Asymmetric di-methyl PABP1 antibody was purchased from Cell Signaling Technology, Danvers, Mass., USA. Methanol was purchased from VWR, Franklin, Mass., USA. 10% Tween 20 was purchased from KPL, Inc., Gaithersburg, Md., USA. Paraformaldehyde (PFA) was purchased from EM Sciences. DRAQ5 was purchased from Biostatus Limited, Leicestershire, UK.
RKO adherent cells were maintained in growth medium (DMEM/Glutamax medium supplemented with 10% v/v heat inactivated fetal bovine serum and 100 units/mL penicillin-streptomycin) and cultured at 37° C. under 5% CO2.
Cell treatment, In Cell Western (ICW) for detection of asymmetric di-methyl PABP1 and DNA content: RKO cells were seeded in assay medium at a concentration of 30,000 cells per mL to a poly-D-lysine coated 384 well culture plate (BD Biosciences 356697) with 50 μL per well. Compound (100 nL) from a 96-well source plate was added directly to 384 well cell plate. Plates were incubated at 37° C., 5% CO2 for 48 hours. After two days of incubation, plates were brought to room temperature outside of the incubator for ten minutes and blotted on paper towels to remove cell media. Cells were fixed for 20 minutes at room temperature by adding 50 ul of 8% PFA followed by aspiration of supernatant with the Biotek EL406 plate washer. Cells were then permeabilized by addition of 50 μL of ice cold 100% methanol directly to each well and incubated for 30 min at room temperature. After 30 min, plates were transferred to a Biotek EL406 plate washer and washed 2 times with 100 μL per well of wash buffer (1×PBS). Next 60 μL per well of Odyssey blocking buffer (Odyssey Buffer with 0.1% Tween 20 (v/v)) were added to each plate and incubated 1 hour at room temperature. Blocking buffer was removed and 20 μL per well of primary antibody was added (asymmetric-methyl PABP1) diluted 1:400 in Odyssey buffer with 0.1% Tween 20 (v/v)) and plates were incubated overnight (16 hours) at 4° C. Plates were washed 5 times with 100 μL per well of wash buffer. Next 20 μL per well of secondary antibody was added (1:800 800CW goat anti-rabbit IgG (H+L) antibody, 1:2000 DRAQ5 in Odyssey buffer with 0.1% Tween 20 (v/v)) and incubated for 1 hour at room temperature. The plates were washed 5 times with 100 μL per well wash buffer then 2 times with 100 μL per well of water. Plates were allowed to dry at room temperature then imaged on the Licor Odyssey machine which measures integrated intensity at 700 nm and 800 nm wavelengths. Both 700 and 800 channels were scanned.
First, the ratio for each well was determined by:
Each plate included fourteen control wells of DMSO only treatment (minimum inhibition) as well as fourteen control wells for maximum inhibition treated with 20 μM of a reference compound. The average of the ratio values for each control type was calculated and used to determine the percent […] for each test well in the plate. Reference compound was serially diluted three-fold in DMSO for a total of nine test concentrations, beginning at 20 μM.
Percent inhibition was determined and IC50 curves were generated using triplicate wells per concentration of compound.

Row | SMILES | IC50 (Human CARM1 (PRMT4)) [nM] | IC50 ([1]; Homo sapiens, RKO, 48 h) [nM] | IC50 ([1]; 48 hours) [nM]
1 | CNC[C@@H](O)COc1ccc(Cl)c(-c2nc(-c3c(C)noc3C)c(C)c(N3CC4(CCN(CC(F)(F)F)CC4)C3)n2)c1 [Example 46] | 17.4 | 35 | –
2 | CNC[C@@H](O)COc1ccc(Cl)c(-c2nc(-c3c(C)noc3C)c(C)c(N3Cc4ccncc4C3C)n2)c1 (some centres unmarked) [Example 124] | 5.2 | 175 | –
3 | CNC[C@@H](O)COc1ccc(Cl)c(-c2nc(-c3c(C)noc3C)c(C)c(N3CC4(CN(C(=O)N(C)C)C4)C3)n2)c1 [Example 41] | 8.7 | 546 | –
4 | CNC[C@@H](O)COc1ccc(Cl)c(-c2nc(-c3c(C)noc3C)c(C)c(N3CC4(C3)CC(OC)(C(F)(F)F)C4)n2)c1 [Example 208] | 5.2 | 142 | –
5 | CNC[C@@H](O)COc1ccc(Cl)c(-c2nc(-c3c(C)noc3C)c(C)c(N3Cc4cnc(N5CC[C@H]5C)nc4C3)n2)c1 [Example 194] | 1.8 | 13 | –
6 | CCN(C)c1nccc2c1CN(c1nc(-c3cc(OC[C@H](O)CNC)ccc3Cl)nc(-c3c(C)noc3C)c1C)C2 [Example 214] | 1.1 | 46 | –
7 | CNC[C@@H](O)COc1ccc(Cl)c(-c2nc(-c3c(C)noc3C)c(C)c(N3CC4(C3)CN(C(C)C(F)(F)F)C4)n2)c1 (some centres unmarked) [Example 283] | 5.67 | 48.4 | –
8 | CNC[C@@H](O)COc1ccc(Cl)c(-c2nc(-c3c(C)noc3C)c(C)c(-n3cc4c(n3)CN(C(=O)OC)C4)n2)c1 [Example 139] | 5.2 | 131 | –
9 | CNC[C@@H](O)COc1ccc(Cl)c(-c2nc(-c3c(C)c(Br)nn3C)c(C)c(N3CC4(CC(OCC(F)F)C4)C3)n2)c1 [Example 303] | 5.91 | 37.6 | –
10 | CC[C@@H]1CN(c2nc(-c3cc(OC[C@H](O)CNC)ccc3Cl)nc(-c3c(C)noc3C)c2C)CCN1C(=O)OC [Example 205] | 3.7 | 202 | –
11 | CNC[C@@H](O)COc1ccc(Cl)c(-c2nc(-c3c(C)noc3C)c(C)c(N3C[C@H]4CN(C(=O)OC)C[C@H]4C3)n2)c1 [Example 53] | 5.3 | 198 | –
12 | CCC1(C(=O)N(C)C)CN(c2nc(-c3cc(OC[C@H](O)CNC)ccc3Cl)nc(-c3c(C)noc3C)c2C)C1 [Example 190] | 6.2 | 138 | –
13 | CNC[C@@H](O)COc1ccc(Cl)c(-c2nc(-c3c(C)noc3C)c(C)c(N3CC4(CCN(C(=O)OC)CC4)C3)n2)c1 [Example 261] | – | 53.9 | –
14 | CNC[C@H](O)COc1ccc(Cl)c(-c2nc(-c3c(C)noc3C)c(C)c(N3CC4(CCN(C(=O)OC)CC4)C3)n2)c1 [Example 248] | – | 294 | –

Now from value to compound:

Row | IC50 (Human CARM1 (PRMT4)) [nM] | IC50 ([1]; Homo sapiens, RKO, 48 h) [nM] | IC50 ([1]; 48 hours) [nM] | SMILES
15 | 1.9 | 14 | – | CNC[C@@H](O)COc1ccc(Cl)c(-c2nc(-c3c(C)noc3C)c(C)c(N3Cc4ccc(N5CC(OC)C5)nc4C3)n2)c1 [Example 229]
16 | 8.24 | 1470 | – | CNC[C@@H](O)COc1ccc(Cl)c(-c2nc(-c3c(C)noc3C)c(C)c(N3CC4(CN(CCC#N)C4)C3)n2)c1 [Example 277]
17 | 9 | 612 | – | CNC[C@@H](O)COc1ccc(Cl)c(-c2nc(-c3c(C)noc3C)c(C)c(N3C[C@H]4C[C@@H]3CN4CC(F)F)n2)c1 [Example 131]
18 | 3.7 | 173 | – | CNC[C@@H](O)COc1ccc(Cl)c(-c2nc(-c3c(C)noc3C)c(C)c(N3CC4(CC(Cl)C4)C3)n2)c1 [Example 141]
19 | 3.39 | – | 38.2 | CNC[C@@H](O)COc1ccc(Cl)c(-c2nc(-c3c(C)noc3C)c(C)c(N3CC4(CC(OCC(F)F)C4)C3)n2)c1 [Example 290]
20 | 2 | 20 | – | CNC[C@@H](O)COc1ccc(Cl)c(-c2nc(-c3c(C)noc3C)c(C)c(N3Cc4ccc(N5CCOCC5)nc4C3)n2)c1 [Example 196]
21 | 2.74 | 123 | – | CNC[C@@H](O)COc1ccc(Cl)c(-c2nc(-c3c(Cl)cnn3C)c(C)c(N3Cc4cnn(C)c4C3)n2)c1 [Example 342]
22 | – | – | 66.7 | CNC[C@@H](O)COc1ccc(Cl)c(-c2nc(-c3c(C)noc3C)c(C)c(N3CC4(CCN(C(=O)OC)CC4)C3)n2)c1 [Example 292]
